Experimental data from patent US8507488B2, “Fused nitrogen containing heterocycles and compositions thereof as kinase inhibitors” (IRM LLC, priority 2008, dated 2013).

Legend:
Tel-TrkA = biological target: T1, Tel-TrkA (Homo sapiens, UniProt P04629); assay: Inhibition of proliferation of Ba/F3 cells expressing Tel-TrkA (BaF3/Tel-TrkA, luciferase/Bright Glo readout); type: cell-based; conditions: read-out: Ba/F3 Tel-TrkA IC 50
T1 construct: dimerization domain of Tel (ETV6) transcription factor (fusion partner, human ETV6 P41212); expressed in transfected cells; host or cells: luciferase expressing Ba/F3 murine hematopoietic progenitor cells; the other entry of the earlier key: ETV6 (P41212, Transcription factor ETV6)
T1 sequence (P04629 510-796 limits assumed): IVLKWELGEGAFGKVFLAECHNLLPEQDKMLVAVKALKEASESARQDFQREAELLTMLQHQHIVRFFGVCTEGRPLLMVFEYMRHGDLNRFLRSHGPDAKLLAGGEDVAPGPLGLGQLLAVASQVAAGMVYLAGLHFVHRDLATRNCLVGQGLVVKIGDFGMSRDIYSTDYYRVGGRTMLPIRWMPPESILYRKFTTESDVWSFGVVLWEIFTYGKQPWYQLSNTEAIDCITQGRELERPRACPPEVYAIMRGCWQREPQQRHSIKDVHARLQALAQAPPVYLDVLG
Description: (§1) Test compounds were dissolved in DMSO (10 mM) and transferred into 1.4 mL flat bottom or V-shaped Matrix tubes carrying a unique 2D matrix chip by individual compound hubs. The numbers of these chips were distinctively linked to the individual compound identification numbers. The stock solutions were stored at −20° C. if not used immediately. For the test procedure the vials were defrosted and identified by a scanner whereby a working sheet is generated that guides the subsequent working steps.
(§2) Compound dilutions were made in 384 well plates. This format enabled the assay of maximally 28 individual test compounds at 12 concentrations (single points) including 2 reference compounds. The dilution protocol included the production of pre-dilution plates, master plates and assay plates: • Compound plates: 30 μL of individual compound (10 mM) DMSO solution including standard compound were transferred into columns 1 and 13 of a 384 well plate. 20 μL of DMSO were added to the rest of the wells and the compounds were serially diluted (1:3) by transferring 10 μL from a well in column 1 or 13 to the next well in column 2 or 14 respectively and successively with the help of a Minitrack robot. • Assay plates: Identical assay plates were then prepared by adding […] each of compound dilutions of the compound plates into 384-well “assay plates”. In the following the compounds were mixed with 50 μL of assays components (cells or enzyme) and tested for their inhibitory activity.
(§3) Compounds of Formula (I) were tested for their antiproliferative effect on Ba/F3 cells expressing either Tel-TrkA, Tel-TrkB or Tel-TrkC and an additional panel of 34 selected diverse kinases activated by fusion to the dimerizing partners Bcr or Tel (Abl, A1K, BMX, EphA3, EphB2, FGFR2, FGFR3, FGFR4, FGR, FLT1, FLT3, FLT4, FMS, IGF1R, InsR, JAK1, JAK2, JAK3, KDR, Kit, Lck, Lyn, MER, MET, PDGFRb, RET, RON, Ros-1, Src, Aurora, TIE2, TYK2, Tie1, ZAP70). The antiproliferative effect of these compounds on the different cell lines and on the non transformed cells were tested at 12 different concentrations of 3-fold serially diluted compounds in 384 well plates as described above (in media lacking IL3). The IC50 values of the compounds the different cell lines were determined from dose response curves.
(§4) The cell line used is the luciferase expressing Ba/F3 murine hematopoietic progenitor cell line transformed with human Tel-TrkA, Tel-TrkB or Tel-TrkC cDNAs (Ba/F3 EN A/B/C). These cells maintained in RPMI/10% fetal bovine serum (RPMI/FCS) supplemented with penicillin 50 mg/mL, streptomycin 50 mg/mL and L-glutamine […]. Untransformed Ba/F3 cells were similarly maintained with the addition 5 ng/ml of murine recombinant IL3. 50 μl of a Ba/F3 or Ba/F3 EN A/B/C cell suspension were plated in Greiner 384 well microplates (white)) at a density of 2000 cells per well. […] The cells were incubated for 48 hours at 37° C., 5% CO2. 25 μl of Bright Glo® (Promega) luciferase substrate is added to each well. The emited luminiscence is quantified using the ACQUEST™ luminescence system (Molecular Devices). IC50 values were calculated by linear regression analysis of the percentage inhibition of each compound at 12 concentrations.

KM12 luc = KM12 luc cell proliferation assay (Table 8); type: cell-based; conditions: KM12 luc cells; read-out: KM12 luc IC 50
[1] = biological target: T2, full length rTrkA and mNGF (Rattus norvegicus, UniProt P35739); assay: Inhibition of proliferation of Ba/F3 cells co-expressing full length rTrkA and mNGF (BaF3/TrkA-NFG); type: cell-based; conditions: BaF3 TRKA-NGF cells, CTG readout
T2 construct: co-expressing full length rTrkA and mNGF; expressed in transfected cells; host or cells: Ba/F3 cells
T2 sequence (P35739 33-799): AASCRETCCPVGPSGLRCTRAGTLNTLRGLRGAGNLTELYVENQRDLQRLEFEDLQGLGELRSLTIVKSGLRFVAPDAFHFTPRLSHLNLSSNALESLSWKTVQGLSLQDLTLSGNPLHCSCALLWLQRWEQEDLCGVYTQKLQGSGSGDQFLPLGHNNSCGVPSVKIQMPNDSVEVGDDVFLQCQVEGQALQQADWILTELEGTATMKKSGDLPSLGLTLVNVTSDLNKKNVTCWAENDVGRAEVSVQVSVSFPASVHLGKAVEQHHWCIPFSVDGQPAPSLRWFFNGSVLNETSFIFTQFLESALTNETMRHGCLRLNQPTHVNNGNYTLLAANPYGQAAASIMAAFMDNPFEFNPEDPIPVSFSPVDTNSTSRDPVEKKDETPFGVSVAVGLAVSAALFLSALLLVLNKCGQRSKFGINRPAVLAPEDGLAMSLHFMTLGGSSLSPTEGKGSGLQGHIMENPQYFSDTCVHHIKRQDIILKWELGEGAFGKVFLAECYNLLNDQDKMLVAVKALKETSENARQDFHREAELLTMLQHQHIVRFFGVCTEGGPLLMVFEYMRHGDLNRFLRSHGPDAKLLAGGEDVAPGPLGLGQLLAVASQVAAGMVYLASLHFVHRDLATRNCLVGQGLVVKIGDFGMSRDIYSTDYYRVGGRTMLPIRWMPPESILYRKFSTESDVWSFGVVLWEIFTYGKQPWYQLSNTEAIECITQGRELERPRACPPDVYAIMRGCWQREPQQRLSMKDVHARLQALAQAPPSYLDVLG
T2 sequence (P01139 122-241 partner): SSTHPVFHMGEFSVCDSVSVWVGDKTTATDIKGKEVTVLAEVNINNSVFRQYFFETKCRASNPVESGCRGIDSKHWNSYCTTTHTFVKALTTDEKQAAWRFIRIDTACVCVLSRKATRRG

Tel-TrkB = biological target: T3, Tel-TrkB (Homo sapiens, UniProt Q16620); assay: Inhibition of proliferation of Ba/F3 cells expressing Tel-TrkB (BaF3/Tel-TrkB); type: cell-based; conditions: Ba/F3 Tel-TrkB cells; read-out: Ba/F3 Tel-TrkB IC 50
T3 construct: dimerization domain of Tel (ETV6) transcription factor (fusion partner, human ETV6 P41212); expressed in transfected cells; host or cells: luciferase expressing Ba/F3 murine hematopoietic progenitor cells; the other entry of the earlier key: ETV6 (P41212, Transcription factor ETV6)
T3 sequence (Q16620 538-822 limits assumed): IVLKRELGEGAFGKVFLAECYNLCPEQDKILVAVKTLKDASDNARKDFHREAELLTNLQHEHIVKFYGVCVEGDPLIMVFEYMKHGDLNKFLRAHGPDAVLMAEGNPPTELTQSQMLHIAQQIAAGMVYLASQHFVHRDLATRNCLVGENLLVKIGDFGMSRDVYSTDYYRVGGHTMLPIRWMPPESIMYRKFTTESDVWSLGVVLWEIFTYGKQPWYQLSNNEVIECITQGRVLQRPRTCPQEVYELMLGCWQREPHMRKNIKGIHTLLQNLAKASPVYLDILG
Description: as §1, §2, §3, §4

parental BaF3 cells = assay: Proliferation of parental (untransformed) Ba/F3 cells maintained with IL3; type: cell-based, murine; conditions: Mus musculus, BaF3, parental Ba/F3 cells; read-out: Ba/F3 IC 50
Description: as §1, §2
The cell line used is the luciferase expressing Ba/F3 murine hematopoietic progenitor cell line transformed with human Tel-TrkA, Tel-TrkB or Tel-TrkC cDNAs (Ba/F3 EN A/B/C). These cells maintained in RPMI/10% fetal bovine serum (RPMI/FCS) supplemented with penicillin 50 mg/mL, streptomycin 50 mg/mL and L-glutamine […]. Untransformed Ba/F3 cells were similarly maintained with the addition 5 ng/ml of murine recombinant IL3. 50 μl of a Ba/F3 or Ba/F3 EN A/B/C cell suspension were plated in Greiner 384 well microplates (white)) at a density of 2000 cells per well. 50 nl of serially diluted test compound (10-0.0001 mM in DMSO solution) is added to each well. The cells were incubated for 48 hours at 37° C., 5% CO2. 25 μl of Bright Glo® (Promega) luciferase substrate is added to each well. The emited luminiscence is quantified using the ACQUEST™ luminescence system (Molecular Devices). IC50 values were calculated by linear regression analysis of the percentage inhibition of each compound at 12 concentrations.

Compound	IC50 (Tel-TrkA) [nM]	IC50 (KM12 luc) [nM]	BaF3 TRKA-NGF CTG IC 50 [1] [nM]	IC50 (Tel-TrkB) [nM]	IC50 (parental BaF3 cells) [nM]
OC1CCN(c2cccc(-c3cnc4ccc(N5CCOCC5c5cccc(F)c5)nn34)n2)CC1 (stereo not drawn) [Table 7-Compound 1]	17	7.6	30	17	> 10000
O=C1CN(c2cccc(-c3cnc4ccc(N5CCCC5c5cccc(F)c5)nn34)n2)CCN1 (stereo not drawn) [Table 4-Compound 5]	0.7	1.2	2.2	0.4	> 10000
CC(=O)N[C@@H]1CCN(c2cccc(-c3cnc4ccc(N5CCCC5c5cccc(F)c5)nn34)n2)C1 (stereo partly drawn) [Table 7-Compound 119]	3	2	4	3	> 11000
O=C(Nc1cnc(-c2cnc3ccc(N4CCCC4c4cccc(F)c4)nn23)cn1)C1CC1 (stereo not drawn) [Table 3-Compound 41]	200		110	210	200
[2H]C([2H])([2H])N(C1CCN(c2cccc(-c3cnc4ccc(N5CCC[C@@H]5c5cccc(F)c5)nn34)n2)CC1)C([2H])([2H])[2H] [Table 7-Compound 230]	6		29	9	2690
Fc1cccc(C2CCCN2c2ccc3ncc(-c4cccc(-c5cnc(N6CCOCC6)nc5)n4)n3n2)c1 (stereo not drawn) [Table 7-Compound 54]	28		41	37	> 10000
CC(C)(C)OC(=O)N1CCC(Oc2ncc(-c3cnc4ccc(N5CCCC5c5cccc(F)c5)nn34)cn2)CC1 (stereo not drawn) [Table 7-Compound 176]	1120		886	971	2750
C=CC1(O)CCN(c2cccc(-c3cnc4ccc(N5CCC[C@@H]5c5cccc(F)c5)nn34)n2)CC1 [Table 7-Compound 238]	17		35	25	> 11000
NC(=O)C1CCCN(c2cccc(-c3cnc4ccc(N5CCOCC5c5cccc(F)c5)nn34)n2)C1 (stereo not drawn) [Table 7-Compound 6]	23		62	39	> 10000
CCN(CC)S(=O)(=O)N1CCN(c2cccc(-c3cnc4ccc(N5CCC[C@@H]5c5cccc(F)c5)nn34)n2)CC1 [Table 7-Compound 231]	23		54	28	> 11000
OCCN1CCN(c2cccc(-c3cnc4ccc(N5CCOCC5c5cccc(F)c5)nn34)n2)CC1 (stereo not drawn) [Table 7-Compound 5]	3.8		6.4	6.2	4820
OCCN1CCN(c2cccc(-c3cnc4ccc(N5CCCC5c5cccc(F)c5)nn34)n2)CC1 (stereo not drawn) [Table 7-Compound 100]	2		3	2	4380
CC(C)c1noc(C2CCN(c3cccc(-c4cnc5ccc(N6CCOCC6c6cccc(F)c6)nn45)n3)CC2)n1 (stereo not drawn) [Table 7-Compound 21]	90		121	67	> 10000
CC(C)NC(=O)CN1CCN(c2cccc(-c3cnc4ccc(N5CCCC5c5cccc(F)c5)nn34)n2)CC1 (stereo not drawn) [Table 7-Compound 96]	1		3	2	5990
Fc1cccc(C2CCCN2c2ccc3ncc(-c4cccc(C5OCCO5)n4)n3n2)c1 (stereo not drawn) [Table 7-Compound 18]	47		64	4.8	> 10000
CN1CCC(N2CCN(c3cccc(-c4cnc5ccc(N6CCOCC6c6cccc(F)c6)nn45)n3)CC2)CC1 (stereo not drawn) [Table 7-Compound 8]	8.2		6.1	8.8	1570
CNC(=O)OC1CCN(c2cccc(-c3cnc4ccc(N5CCC[C@@H]5c5cccc(F)c5)nn34)n2)CC1 [Table 7-Compound 185]	64		119	70	> 11000
Fc1cccc(C2CCCN2c2ccc3ncc(-c4cccc(OCCN5CCOCC5)n4)n3n2)c1 (stereo not drawn) [Table 4-Compound 25]	10		28	7.1	7500
Fc1ccc(N2CCN(c3cccc(-c4cnc5ccc(N6CCC[C@@H]6c6cccc(F)c6)nn45)n3)CC2)cc1 [Table 7-Compound 257]	130		101	289	> 11000
CN(C)c1nccc(-c2cccc(-c3cnc4ccc(N5CCCC5c5cccc(F)c5)nn34)n2)n1 (stereo not drawn) [Table 7-Compound 58]	115		210	150	> 10000
N#Cc1ccc(-c2cnc3ccc(N4CCOCC4c4cccc(F)c4)nn23)cc1 (stereo not drawn) [Table 2-Compound 1]		7			> 9690
Fc1cccc(C2COCCN2c2ccc3ncc(-c4cccc(N5CCOCC5)n4)n3n2)c1 (stereo not drawn) [Table 2-Compound 10]	6.9		8.8	6.2	> 10000
OCCN1CCN(c2nccc(-c3cccc(-c4cnc5ccc(N6CCC[C@@H]6c6cccc(F)c6)nn45)n3)n2)CC1 [Table 7-Compound 82]	8.9		5.12	10	397
O=C(c1ccc(-c2cnc3ccc(N4CCCC4c4cccc(F)c4)nn23)cn1)N1CCC(O)CC1 (stereo not drawn) [Table 3-Compound 26]	1020		370	540	> 10000
O=C(C1CCN(c2cccc(-c3cnc4ccc(N5CCOCC5c5cccc(F)c5)nn34)n2)CC1)N1CCC(O)C1 (stereo not drawn) [Table 7-Compound 26]	7.7		12	7.5	> 10000
COc1ncc(-c2cnc3ccc(N4CCCC4c4cccc(F)c4)nn23)s1 (stereo not drawn) [Table 3-Compound 27]	140		320	93	> 10000
